The values that follow come from patent US8536354B2, “Steroidal ligands and their use in gene switch modulation” (Intrexon Corporation, priority 2008, dated 2013).

Like-named read-outs stand apart in the source and are kept apart here. A value given as a limit tells only on which side of the number the result lay.

For orientation: EC50 means the concentration at which the effect is half-maximal.

For experiment [1], the system named is Nephotettix cincticeps EcR (NcEcR-DEF). The experiment in a line: Two-hybrid gene switch assay, NcEcR-DEF in NIH3T3 cells. Particulars: for rel max FI (20E), NC: max fold induction at any concentration relative to 20E; for rel max FI (PoA), NC: max fold induction at any concentration relative to PoA; for EC50: read-out: EC50 (μM), NC, NIH3T3 cells, luciferase, 48 h, ligand 0.01-33 μM.

Experiment [2] concerns the target T1, Amblyomma americanum EcR (AmaEcR-DEF) (Amblyomma americanum, UniProt O44338).
T1 sequence (O44338 291-570): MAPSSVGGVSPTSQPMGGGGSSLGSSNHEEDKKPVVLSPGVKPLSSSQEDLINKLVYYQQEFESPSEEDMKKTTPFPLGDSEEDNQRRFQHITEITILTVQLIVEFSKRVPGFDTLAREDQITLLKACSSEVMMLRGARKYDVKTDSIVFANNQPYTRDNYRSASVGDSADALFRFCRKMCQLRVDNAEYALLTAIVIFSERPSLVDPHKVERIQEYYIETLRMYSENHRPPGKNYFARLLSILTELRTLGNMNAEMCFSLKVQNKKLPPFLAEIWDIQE
T1 sequence (P28702 299-449 partner): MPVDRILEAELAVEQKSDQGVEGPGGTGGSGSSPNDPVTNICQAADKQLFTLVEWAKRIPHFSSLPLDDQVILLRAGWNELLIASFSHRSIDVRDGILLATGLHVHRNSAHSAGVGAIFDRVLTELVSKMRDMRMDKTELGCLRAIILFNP
The experiment in a line: Two-hybrid gene switch assay, AmaEcR-DEF in NIH3T3 cells. Particulars: for Emax: NIH3T3, 48 h.

In experiment [3] the target is T2, wild-type Drosophila melanogaster EcR (DmEcR-DEF) (Drosophila melanogaster, UniProt P34021).
T2 sequence (P34021 342-878 limits assumed): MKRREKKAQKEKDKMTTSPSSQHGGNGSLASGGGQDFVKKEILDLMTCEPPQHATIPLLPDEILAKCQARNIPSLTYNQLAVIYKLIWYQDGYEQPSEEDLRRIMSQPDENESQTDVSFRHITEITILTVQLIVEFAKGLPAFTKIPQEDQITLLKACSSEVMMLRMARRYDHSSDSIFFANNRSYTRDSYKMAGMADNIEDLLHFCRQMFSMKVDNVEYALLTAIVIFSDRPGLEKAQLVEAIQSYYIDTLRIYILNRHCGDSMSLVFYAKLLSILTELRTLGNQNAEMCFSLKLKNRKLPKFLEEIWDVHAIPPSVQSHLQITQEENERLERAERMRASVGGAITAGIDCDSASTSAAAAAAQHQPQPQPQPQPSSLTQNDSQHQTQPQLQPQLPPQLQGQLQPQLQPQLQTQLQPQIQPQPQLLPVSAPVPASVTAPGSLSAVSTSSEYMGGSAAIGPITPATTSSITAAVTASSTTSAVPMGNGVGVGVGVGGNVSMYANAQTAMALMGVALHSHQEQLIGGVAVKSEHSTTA
The experiment in a line: Two-hybrid gene switch assay, DmEcR-DEF in NIH3T3 cells. Particulars: for rel max FI (20E), DM: max fold induction at any concentration relative to 20E; for rel max FI (PoA), DM: max fold induction at any concentration relative to PoA.

Experiment [4] addresses Bemisia argentifolii EcR (BaEcR-DEF) (Bemisia argentifolii (Bemisia tabaci biotype B / MEAM1), UniProt A0A6M3RDR8). The experiment in a line: Two-hybrid gene switch assay, BaEcR-DEF in NIH3T3 cells. Particulars: for Emax: NIH3T3, 48 h.
Setting [5] is: read-out: rel max FI (20E), AMA.
The mark [6] stands for this setting: read-out: rel max FI (PoA), AMA.

Bemisia argentifolii EcR (BaEcR-DEF), sequence (P28702 298-449): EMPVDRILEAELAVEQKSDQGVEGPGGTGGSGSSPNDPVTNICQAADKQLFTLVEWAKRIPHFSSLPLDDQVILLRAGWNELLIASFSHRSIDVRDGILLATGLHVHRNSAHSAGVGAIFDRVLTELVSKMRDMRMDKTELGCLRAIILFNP
Bemisia argentifolii EcR (BaEcR-DEF), sequence (A0A6M3RDR8 entry or part of it): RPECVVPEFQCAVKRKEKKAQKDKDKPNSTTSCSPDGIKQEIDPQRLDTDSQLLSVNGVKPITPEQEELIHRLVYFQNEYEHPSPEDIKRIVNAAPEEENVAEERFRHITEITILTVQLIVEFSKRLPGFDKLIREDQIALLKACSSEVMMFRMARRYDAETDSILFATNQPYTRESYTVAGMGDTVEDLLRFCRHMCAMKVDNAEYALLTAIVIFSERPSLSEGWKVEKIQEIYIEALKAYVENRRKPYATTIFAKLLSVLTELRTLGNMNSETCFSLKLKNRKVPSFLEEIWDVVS

Take `COC1C[C@H]2C(=O)C=C3[C@H](CC[C@]4(C)[C@@H]([C@@](C)(O)C(CCC(C)(C)O)OC)CC[C@@]34OC)[C@@]2(C)CC1OC` (stereo partly drawn) [20E-2,3,14,22-tetramethyl ether]: in experiment [1], the “rel max FI (20E), NC” value is 0.01; the “rel max FI (PoA), NC” value is given as 0.01; the EC50 was > 33 µM. In addition, in experiment [2] (AmaEcR, max fold induction at any concentration relative to 20E), the “rel max FI (20E), AMA” value is recorded as 0.34. Further, the “rel max FI (PoA), AMA” value in experiment [2] (AmaEcR, max fold induction at any concentration relative to PoA) was found to be 0.26. Further, the EC50 in experiment [2] (read-out: EC50 (μM), AMA, AmaEcR, NIH3T3 cells, luciferase, 48 h, ligand 0.01-33 μM) was > 33 µM. In addition, in experiment [3] (DmEcR), the “rel max FI (20E), DM” value is on record as 0.01 and the “rel max FI (PoA), DM” value amounted to 0.02. In addition, the EC50 in experiment [3] (read-out: EC50 (μM), DM, DmEcR, NIH3T3 cells, luciferase, 48 h, ligand 0.01-33 μM) is > 33 µM. Besides, in experiment [4] (BaEcR, max fold induction at any concentration relative to 20E), the “rel max FI (20E), BA” value amounted to 0.02. Further, the “rel max FI (PoA), BA” value in experiment [4] (BaEcR, max fold induction at any concentration relative to PoA) came out at 0.01. For the same compound, in experiment [4] (read-out: EC50 (μM), BA, BaEcR, NIH3T3 cells, luciferase, 48 h, ligand 0.01-33 μM), the half-maximal effective concentration (EC50) was > 33 µM.

Turning to `CO[C@H]1C[C@@]2(C)[C@@H](C[C@H]1O)C(=O)C=C1[C@@H]2CC[C@]2(C)[C@@H]([C@@](C)(O)[C@@H](CCC(C)(C)O)OC)CC[C@@]12O` [20E-2,22-dimethyl ether], the “rel max FI (20E), NC” value in experiment [1] was determined as 0.84. Further, the “rel max FI (PoA), NC” value in experiment [1] is on record as 0.86. Besides, the EC50 is ~10 µM in experiment [1]; ~8 µM in experiment [2]; ~20 µM in experiment [3] (EC50 (μM), DM, DmEcR, NIH3T3 cells, luciferase, 48 h, ligand 0.01-33 μM); ~10 µM in experiment [4]. For the same compound, the Emax in experiment [2] (setting [5]) stood at 94%; in experiment [2] (setting [6]), 72%; in experiment [4] (read-out: rel max FI (20E), BA) it was 24%; in experiment [4] (read-out: rel max FI (PoA), BA), 19%. In experiment [3] (DmEcR), the “rel max FI (20E), DM” value is 0.12. In addition, in experiment [3] (DmEcR), the “rel max FI (PoA), DM” value is 0.15.

As to `CO[C@H]1C[C@@]2(C)[C@@H](C[C@H]1O)C(=O)C=C1[C@@H]2CC[C@]2(C)[C@@H]([C@@](C)(O)[C@H](O)CCC(C)(C)O)CC[C@@]12O` [20E-2-methyl ether], the “rel max FI (20E), NC” value in experiment [1] is 0.82. Moreover, the “rel max FI (PoA), NC” value in experiment [1] is reported as 0.84. Moreover, the EC50 in experiment [1] is ~8 µM; in experiment [2], ~10 µM; in experiment [3] it was > 33 µM; in experiment [4], > 33 µM. In addition, the Emax in experiment [2] (setting [5]) was 65%; in experiment [2] (setting [6]), 50%; in experiment [4] (read-out: rel max FI (20E), BA), 3%; in experiment [4] (read-out: rel max FI (PoA), BA), 3%. Besides, the “rel max FI (20E), DM” value in experiment [3] (DmEcR) came to 0.00. Moreover, the “rel max FI (PoA), DM” value in experiment [3] (DmEcR) is 0.00.

Consider `CO[C@@H]1C[C@H]2C(=O)C=C3[C@H](CC[C@]4(C)[C@@H]([C@@](C)(O)[C@@H](CCC(C)(C)O)OC)CC[C@@]34O)[C@@]2(C)C[C@@H]1O` [20E-3,22-dimethyl ether], for which, in experiment [1], the “rel max FI (20E), NC” value is 1.03. Further, the “rel max FI (PoA), NC” value in experiment [1] came to 1.06. The EC50 in experiment [1] was ~8 µM; in experiment [2], ~2 µM; in experiment [3], ~20 µM; in experiment [4], ~10 µM. Also, the Emax in experiment [2] (setting [5]) was 104%; in experiment [2] (setting [6]), 80%; in experiment [4] (read-out: rel max FI (20E), BA) it was 38%; in experiment [4] (read-out: rel max FI (PoA), BA) it was 30%. Besides, in experiment [3] (DmEcR), the “rel max FI (20E), DM” value was 0.07. Also, the “rel max FI (PoA), DM” value in experiment [3] (DmEcR) is listed as 0.09.

Take `CO[C@@H]1C[C@H]2C(=O)C=C3[C@H](CC[C@]4(C)[C@@H]([C@@](C)(O)[C@H](O)CCC(C)(C)O)CC[C@@]34O)[C@@]2(C)C[C@@H]1O` [20E-3-methyl ether]: the “rel max FI (20E), NC” value in experiment [1] was 1.01. In addition, in experiment [1], the “rel max FI (PoA), NC” value is recorded as 1.04. The EC50 was 1.69 µM in experiment [1], ~3.3 µM in experiment [2], > 33 µM in experiment [3] and ~15 µM in experiment [4]. For the same compound, the Emax in experiment [2] (setting [5]) was 91%; in experiment [2] (setting [6]), 70%; in experiment [4] (read-out: rel max FI (20E), BA), 29%; in experiment [4] (read-out: rel max FI (PoA), BA), 23%. In addition, in experiment [3] (DmEcR), the “rel max FI (20E), DM” value amounted to 0.02. Further, the “rel max FI (PoA), DM” value in experiment [3] (DmEcR) was found to be 0.03.

In the case of `CO[C@H](CCC(C)(C)O)[C@](C)(O)C1CC[C@@]2(O)C3=CC(=O)C4C[C@@H](O)[C@@H](O)CC4(C)C3CCC12C` (stereo partly drawn) [20E-22-methyl ether], the “rel max FI (20E), NC” value in experiment [1] is recorded as 1.02. The “rel max FI (PoA), NC” value in experiment [1] is listed as 1.05. Moreover, the EC50 was 2.59 µM in experiment [1], ~1 µM in experiment [2], ~4 µM in experiment [3] and ~3 µM in experiment [4]. Further, the Emax came out at 108% in experiment [2] (setting [5]); 83% in experiment [2] (setting [6]); 154% in experiment [4] (read-out: rel max FI (20E), BA); 123% in experiment [4] (read-out: rel max FI (PoA), BA). Moreover, in experiment [3] (DmEcR), the “rel max FI (20E), DM” value amounted to 0.87. In addition, in experiment [3] (DmEcR), the “rel max FI (PoA), DM” value turned out to be 1.07.
